Experimental data taken from US10167262B2, “Herbicidal substituted 3-arylpyrazoles” (FMC CORPORATION, priority 2014, dated 2019).

What was measured:
Type in all cases: in vivo
[1] = tested on: barnyardgrass (Echinochloa crus-galli); test: Test C pre-/postemergence greenhouse test, plant response rating 0-100; details: Preemergence
Method in brief: (§1)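 Visual 0–100 control scores, taken 13 to 15 days post-application in a greenhouse, reflect treatment preemergence (seed in loam soil with sand) or postemergence (2–18 cm plants in peat moss, vermiculite medium). A dash marks no result.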

[2] = tested on: oilseed rape (Brassica napus); test: as above; details: Preemergence
Method in brief: as §1

[3] = tested on: waterhemp (common waterhemp, Amaranthus rudis); test: as above; details: Preemergence
Method in brief: as §1

[4] = tested on: downy bromegrass (Bromus tectorum); test: Test C postemergence greenhouse test, plant response rating 0-100; details: for Plant response rating, Bromegrass, Downy: scale 0 to 100
Method in brief: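 Postemergence spray onto 1–4-leaf potted seedlings, greenhouse incubation 13–15 days. Visual percent-control rating (0–100) against untreated plants.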

[5] = tested on: arrowleaf sida (Sida rhombifolia); test: Test E pre-/postemergence greenhouse test, plant response rating 0-100
Method in brief: (§2)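 Sow seeds in silt loam and treat preemergence; at the same time, spray postemergence on 1- to 4-leaf plants in peat/vermiculite mix. Use a non-phytotoxic solvent plus surfactant as carrier. Hold 14–21 days in greenhouse, then score visually 0–100 against controls.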

[6] = tested on: palmer pigweed (Amaranthus palmeri); test: as above; details: scale 0 to 100; for Pigweed, Palmer plant response rating: Preemergence
Method in brief: as §2

[7] = tested on: waterhemp_RES2, (ALS & HPPD resistant common waterhemp, Amaranthus rudis); test: Test E postemergence greenhouse test, plant response rating 0-100; details: scale 0 to 100
Description: At the same time, plants from these crop and weed species and also waterhemp_RES1, (ALS & Triazine resistant common waterhemp, Amaranthus rudis), and waterhemp_RES2, (ALS & HPPD resistant common waterhemp, Amaranthus rudis) were planted in pots containing Redi-Earth® planting medium (Scotts Company, 14111 Scottslawn Road, Marysville, Ohio 43041) comprising spaghnum peat moss, vermiculite, wetting agent and starter nutrients were treated with postemergence applications of test chemicals formulated in the same manner. Plants ranged in height from 2 to 18 cm for postemergence treatments (1- to 4-leaf stage).
Treated plants and controls were maintained in a greenhouse for 14 to 21 days, after which time all species were compared to controls and visually evaluated. Plant response ratings, summarized in Table E, are based on a scale of 0 to 100 where 0 is no effect and 100 is complete control. A dash (-) response means no test result.

[8] = tested on: ducksalad (Heteranthera limosa); test: Test B flooded paddy test, plant response rating 0-100; details: Flood, 250 g ai/ha; scale 0 to 100 (0 no effect, 100 complete control); 13 to 15 days
Method in brief: (§3)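 Test compounds are applied straight into paddy water held 3 cm above the soil surface, with that flood maintained for the whole test. After 13 to 15 days in the greenhouse, each species is scored visually relative to controls.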

rice (Oryza sativa) = test: as above; details: Flood, 250 g ai/ha; scale 0 to 100 (0 no effect, 100 complete control); 13 to 15 days
Method in brief: as §3

[9] = tested on: sedge, umbrella (small-flower umbrella sedge, Cyperus difformis); test: as above; details: Flood, 250 g ai/ha; scale 0 to 100 (0 no effect, 100 complete control); 13 to 15 days
Method in brief: as §3

[10] = Sida rhombifolia, post-emergence, Postemergence, 31 g ai/ha, scale 0 to 100
[11] = Sida rhombifolia, post-emergence, Postemergence, 62 g ai/ha, scale 0 to 100
[12] = Sida rhombifolia, post-emergence, Postemergence, 125 g ai/ha, scale 0 to 100
[13] = Sida rhombifolia, post-emergence, Postemergence, 250 g ai/ha, scale 0 to 100
[14] = Amaranthus palmeri, post-emergence, Postemergence, 31 g ai/ha
[15] = Amaranthus palmeri, post-emergence, Postemergence, 62 g ai/ha
[16] = Amaranthus palmeri, post-emergence, Postemergence, 125 g ai/ha
[17] = Amaranthus palmeri, post-emergence, Postemergence, 250 g ai/ha
[18] = Postemergence, 31 g ai/ha, scale 0 to 100
[19] = Postemergence, 62 g ai/ha, scale 0 to 100
[20] = Postemergence, 125 g ai/ha, scale 0 to 100
[21] = Postemergence, 250 g ai/ha, scale 0 to 100
[22] = Postemergence, 500 g ai/ha, scale 0 to 100 (0 no effect, 100 complete control)

Structure (SMILES) | Plant response rating (0 to 100), Bromegrass, Downy ([4]; 31 g ai/ha) | Plant response rating (0 to 100), Bromegrass, Downy ([4]; 62 g ai/ha) | Plant response rating (0 to 100), Bromegrass, Downy ([4]; 125 g ai/ha) | Plant response rating, Bromegrass, Downy ([4]; 250 g ai/ha) | pest or weed control at 31 g/ha [5, 10] [%] | pest or weed control at 62 g/ha [5, 11] [%] | pest or weed control at 125 g/ha [5, 12] [%] | pest or weed control at 250 g/ha [5, 13] [%] | pest or weed control at 31 g/ha [6, 14] [%] | pest or weed control at 62 g/ha [6, 15] [%] | pest or weed control at 125 g/ha [6, 16] [%] | pest or weed control at 250 g/ha [6, 17] [%] | Plant response rating, Waterhemp_RES2 ([7]; 62 g ai/ha) | Plant response rating, Waterhemp_RES2 ([7]; 125 g ai/ha) | Plant response rating, Waterhemp_RES2 ([7]; 250 g ai/ha) | Plant response rating, Bromegrass, Downy ([4]; 125 g ai/ha) | Plant response rating, Bromegrass, Downy ([4]; 500 g ai/ha) | Plant response rating, Arrowleaf Sida [5, 18] | Plant response rating, Waterhemp_RES2 ([7]; 31 g ai/ha) | Plant response rating, Waterhemp_RES2 ([7]; 500 g ai/ha) | further results
Cn1cc(C(=O)c2ccccc2)c(-c2cc(Cl)cc(Cl)c2)n1 [Compound 54, [3-(3,5-dichlorophenyl)-1-methyl-1H-pyrazol-4-yl]phenylmethanone] | 0 | 0 | 0 | 0 | 50 | 50 | 65 | 75 | 40 | 60 | 75 | 95 | 80 | 85 | 85 |  |  |  |  |  | Plant response rating, Barnyardgrass ([1]; 62 g ai/ha): 0; Plant response rating, Barnyardgrass ([1]; 125 g ai/ha): 0; Plant response rating, Barnyardgrass ([1]; 250 g ai/ha): 0; Plant response rating, Barnyardgrass ([1]; 500 g ai/ha): 0; Plant response rating, Oilseed Rape ([2]; 62 g ai/ha): 0; Plant response rating, Oilseed Rape ([2]; 125 g ai/ha): 0; Plant response rating, Oilseed Rape ([2]; 250 g ai/ha): 0; Plant response rating, Oilseed Rape ([2]; 500 g ai/ha): 5; Plant response rating, Waterhemp ([3]; 62 g ai/ha): 90; Plant response rating, Waterhemp ([3]; 125 g ai/ha): 95; Plant response rating, Waterhemp ([3]; 250 g ai/ha): 98; Plant response rating, Waterhemp ([3]; 500 g ai/ha): 100; Arrowleaf Sida plant response rating ([5]; Preemergence, 125 g ai/ha, scale 0 to 100): 43; Arrowleaf Sida plant response rating ([5]; Preemergence, 250 g ai/ha, scale 0 to 100): 80; pest or weed control at 16 g/ha ([5]; Sida rhombifolia, post-emergence, Postemergence, 16 g ai/ha, scale 0 to 100): 30%; pest or weed control at 1000 g/ha ([5]; Sida rhombifolia, pre-emergence, Preemergence, 1000 g ai/ha, scale 0 to 100): 100%; Pigweed, Palmer plant response rating ([6]; 125 g ai/ha): 86; Pigweed, Palmer plant response rating ([6]; 250 g ai/ha): 95
Cn1cc(C(=NN2CCCC2)c2ccccc2)c(-c2cc(Cl)c(Cl)c(Cl)c2)n1 [Compound 25] | 0 | 0 |  | 0 |  |  |  |  |  |  |  |  |  |  |  | 0 |  |  |  |  | Plant response rating, Ducksalad [8]: 0; Plant response rating, Rice (rice (Oryza sativa)): 0; Plant response rating, Sedge, Umbrella [9]: 70
Cn1cc(C(=O)c2cccs2)c(-c2cc(Cl)cc(Cl)c2)n1 [Compound 17] |  | 0 |  | 0 |  |  |  |  |  |  |  |  | 75 | 80 | 85 | 0 | 0 | 60 | 60 | 95 | Plant response rating, Arrowleaf Sida [5, 19]: 70; Plant response rating, Arrowleaf Sida [5, 20]: 75; Plant response rating, Arrowleaf Sida [5, 21]: 80; Plant response rating, Arrowleaf Sida [5, 22]: 85; Plant response rating, Pigweed, Palmer ([6]; Postemergence, 31 g ai/ha): 60; Plant response rating, Pigweed, Palmer ([6]; Postemergence, 62 g ai/ha): 70; Plant response rating, Pigweed, Palmer ([6]; Postemergence, 125 g ai/ha): 80; Plant response rating, Pigweed, Palmer ([6]; Postemergence, 250 g ai/ha): 85; Plant response rating, Pigweed, Palmer ([6]; Postemergence, 500 g ai/ha): 95
CCCn1cc(C(=O)c2ccccc2)c(-c2cc(Cl)cc(Cl)c2)n1 [Compound 61, [3-(3,5-dichlorophenyl)-1-propyl-1H-pyrazol-4-yl]phenylmethanone] | 0 | 0 | 0 | 0 | 30 | 40 | 40 | 60 | 50 | 60 | 60 | 80 |  | 40 |  |  |  |  | 20 | 95 | pest or weed control at 500 g/ha ([5]; Sida rhombifolia, post-emergence, Postemergence, 500 g ai/ha, scale 0 to 100 (0 no effect, 100 complete control)): 70%; pest or weed control at 500 g/ha ([6]; Amaranthus palmeri, post-emergence, Postemergence, 500 g ai/ha): 95%
CCn1cc(C(=O)c2cccs2)c(-c2cc(Cl)cc(Cl)c2)n1 [Compound 18] |  | 0 |  | 0 |  |  |  |  |  |  |  |  | 80 | 85 | 90 | 0 | 0 | 60 | 65 | 95 | Plant response rating, Arrowleaf Sida [5, 19]: 70; Plant response rating, Arrowleaf Sida [5, 20]: 80; Plant response rating, Arrowleaf Sida [5, 21]: 80; Plant response rating, Arrowleaf Sida [5, 22]: 85; Plant response rating, Pigweed, Palmer ([6]; Postemergence, 31 g ai/ha): 90; Plant response rating, Pigweed, Palmer ([6]; Postemergence, 62 g ai/ha): 90; Plant response rating, Pigweed, Palmer ([6]; Postemergence, 125 g ai/ha): 90; Plant response rating, Pigweed, Palmer ([6]; Postemergence, 250 g ai/ha): 98; Plant response rating, Pigweed, Palmer ([6]; Postemergence, 500 g ai/ha): 98
